The results in this text go back to ChEMBL document CHEMBL1135361, “Potent in vitro methicillin-resistant Staphylococcus aureus activity of 2-(1H-indol-3-yl)tetrahydroquinoline derivatives” (2002).

SMILES strings stand for the structures. In brackets after ≈: the same amount, converted by molar mass.

The first experiment deals with Staphylococcus aureus. In words: Minimum inhibitory concentration against methicillin-resistant Staphylococcus aureus. It is filed as functional.
Conditions: not given
The term MIC denotes the lowest concentration found to suppress growth. With `Clc1ccc2c(c1)[C@H]1OCC[C@H]1[C@@H](c1c[nH]c3ccc(Br)cc13)N2` (stereo in doubt), the MIC came out at 0.31 µg/mL (≈ 0.768 µM).

As for `Clc1ccc2c(c1)[C@H]1OCC[C@H]1[C@@H](c1c[nH]c3ccc(Br)cc13)N2` (stereo in doubt; 9), the MIC is 3.13 µg/mL (≈ 7.75 µM).

The experiment is the same for the next values; noted with them: Staphylococcus aureus; read-out: MIC.
Turning to `FC(F)(F)c1cccc2c1N[C@H](c1c[nH]c3ccc(Br)cc13)[C@@H]1CCO[C@H]21`, the MIC came out at 0.78 µg/mL (≈ 1.78 µM).

Regarding `Fc1ccc2c([C@H]3Nc4ccc(Cl)cc4[C@H]4OCC[C@@H]34)c[nH]c2c1`, the MIC came out at 6.25 µg/mL (≈ 18.2 µM).

In the case of `Clc1ccc2c(c1)[C@H]1OCC[C@H]1[C@@H](c1c[nH]c3ccccc13)N2`, the MIC is more than 25 µg/mL.

Turning to `Brc1ccc2[nH]cc([C@H]3Nc4ccc(C#CCN5CCCCC5)cc4[C@H]4OCC[C@@H]34)c2c1`, the MIC came to 1.56 µg/mL (≈ 3.18 µM).

`Cc1[nH]c2ccccc2c1[C@H]1Nc2ccc(Cl)cc2[C@H]2OCC[C@@H]12`: the MIC was more than 25 µg/mL.

`Clc1ccc2c(c1)[C@H]1OCC[C@H]1[C@@H](c1c[nH]c3ccc(Cl)cc13)N2`: the MIC was found to be 0.78 µg/mL (≈ 2.17 µM).

For `Clc1ccc2ccc(-c3c[nH]c4ccc(Br)cc34)nc2c1`, the MIC was 0.6 µg/mL (≈ 1.68 µM).

For the molecule `Fc1ccc2c(c1)[C@H]1OCC[C@H]1[C@@H](c1c[nH]c3ccc(Br)cc13)N2`, the MIC is 6.25 µg/mL (≈ 16.1 µM).

Take `Clc1ccc2c(c1)[C@H]1OCC[C@H]1[C@H](c1c[nH]c3ccc(Cl)cc13)N2`: the MIC was 3.13 µg/mL (≈ 8.71 µM).

As for `Clc1ccc2c(c1)[C@H]1NCC[C@H]1[C@@H](c1c[nH]c3ccc(Cl)cc13)N2`, the MIC was 3.13 µg/mL (≈ 8.74 µM).

Take `OCC#Cc1ccc2c(c1)[C@H]1OCC[C@H]1[C@@H](c1c[nH]c3ccc(Br)cc13)N2`: the MIC is 3.13 µg/mL (≈ 7.39 µM).

As to `CC(C)(C)OC(=O)N1CC[C@@H]2[C@H]1c1cc(Cl)ccc1N[C@H]2c1c[nH]c2ccc(Br)cc12`, the MIC amounted to 1.56 µg/mL (≈ 3.1 µM).

`Clc1ccc2c(c1)N(Cl)[C@H](c1c[nH]c3ccc(Br)cc13)[C@@H]1CCO[C@H]21`: the MIC turned out to be 1.56 µg/mL (≈ 3.56 µM).

In the case of `COc1cccc2c1N[C@H](c1c[nH]c3ccc(Br)cc13)[C@@H]1CCO[C@H]21`, the MIC was found to be 1.56 µg/mL (≈ 3.91 µM).

As for `Clc1ccc2c(c1)[C@H]1NCC[C@H]1[C@H](c1c[nH]c3ccc(Cl)cc13)N2`, the MIC was 6.25 µg/mL (≈ 17.4 µM).

Turning to `Brc1ccc2[nH]cc([C@H]3Nc4c(I)cccc4[C@H]4OCC[C@@H]34)c2c1`, the MIC is less than 0.39 µg/mL.

Turning to `NCc1cc(-c2c[nH]c3ccc(Br)cc23)nc2cc(Cl)ccc12`, the MIC is 0.78 µg/mL (≈ 2.02 µM).

With `Clc1ccc2c(c1)[C@H]1OCC[C@H]1[C@H](c1c[nH]c3ccccc13)N2`, the minimum inhibitory concentration (MIC) amounted to 6.25 µg/mL (≈ 19.2 µM).

Turning to `CN1c2ccc(Cl)cc2[C@H]2OCC[C@H]2[C@H]1c1c[nH]c2ccc(Br)cc12`, the MIC was more than 25 µg/mL.

`CC(C)(C)OC(=O)N1CC[C@H]2[C@@H](c3c[nH]c4ccc(Br)cc34)Nc3ccc(Cl)cc3[C@H]21`: the MIC came out at 0.78 µg/mL (≈ 1.55 µM).

For `Clc1cc(Cl)c2c(c1)[C@H]1OCC[C@H]1[C@@H](c1c[nH]c3ccc(Br)cc13)N2`, the MIC is 1.56 µg/mL (≈ 3.56 µM).

In the case of `Brc1ccc2[nH]cc([C@H]3Nc4ccc(CCCN5CCCCC5)cc4[C@H]4OCC[C@@H]34)c2c1`, the MIC is 12.5 µg/mL (≈ 25.3 µM).

On to `Fc1ccc2c([C@@H]3Nc4ccc(Cl)cc4[C@H]4OCC[C@H]43)c[nH]c2c1`, for which the MIC stood at 12.5 µg/mL (≈ 36.5 µM).

Regarding `Clc1ccc2c(c1)[C@H]1OCC[C@H]1[C@H](c1c[nH]c3ccc(Br)cc13)N2`, the MIC was 3.13 µg/mL (≈ 7.76 µM).

Consider `Fc1cccc2c1N[C@H](c1c[nH]c3ccc(Br)cc13)[C@@H]1CCO[C@H]21`, for which the minimum inhibitory concentration (MIC) is 0.78 µg/mL (≈ 2.01 µM).

Another experiment concerns Enterococcus faecium. In words: Minimum inhibitory concentration against vancomycin-resistant Enterococcus faecium (VRE). It counts as functional.
Conditions: not given
As for `Clc1ccc2ccc(-c3c[nH]c4ccc(Br)cc34)nc2c1`, the MIC was more than 25 µg/mL.

In turn, `Clc1ccc2c(c1)[C@H]1NCC[C@H]1[C@@H](c1c[nH]c3ccc(Cl)cc13)N2` showed an MIC of more than 25 µg/mL.

For the molecule `Clc1ccc2c(c1)[C@H]1NCC[C@H]1[C@H](c1c[nH]c3ccc(Cl)cc13)N2`, the MIC is more than 25 µg/mL.

Consider `NCc1cc(-c2c[nH]c3ccc(Br)cc23)nc2cc(Cl)ccc12`, for which the MIC was 1.56 µg/mL (≈ 4.03 µM).
